Reference: PMC10657444, “Design and evaluation of tadpole-like conformational antimicrobial peptides” (Communications Biology, 2023)
Values joined by “and” are separate entries in the source; they are usually repeats but may differ in a detail not shown here. Identical values can stand only once. Non-standard residues stand in square brackets, D forms with d. Residues, ends and D or L forms follow the SMILES beside them.

Columns and labels:
[1] = tested on: K. pneumoniae ATCC 700603; test: Time-kill assay; type: cell-based, Klebsiella pneumoniae
Experimental: (§1) Time-kill assays were done in tubes (in 1.5 mL of LB) and antibiotics at the 1 ×, 2 ×, 4 × and 8 × MIC. Tubes were inoculated (5 × 10^6 CFU/mL) with MRSA USA 300 and K. pneumoniae ATCC 700603 and incubated at 37 °C under shaking. Serial dilutions of the cultures were plated at each desired time point (0, 1, 3, 6, and 24 h), using a multichannel pipette as follows: in line 1 of a 96-well plate, 100 µL of bacterial suspension was added, while 90 µL of 0.9% sterile saline per well was added to the other lines. At selected time points, 100 µL of bacterial suspension was transferred from the time-kill assay plate to the first line. The wells were further diluted 1 in 10 (0.9% saline) for the appropriate number of dilutions and 10 μL of each dilution was spotted in duplicate onto MH agar plates, then incubated overnight at 37°C. The colonies in each spot were counted and used to calculate the number of viable CFU/mL remaining in the original culture by considering the dilution factors.

sheep red blood cells = test: Hemolysis assay
MRSA USA 300 [2] = test: Time-kill assay; type: cell-based, Staphylococcus aureus
Experimental: as §1

MRSA USA 300 [3] = test: Membrane permeability, SYTOX Green; type: cell-based, Staphylococcus aureus
Experimental: Fluorescent probe SYTOX^TM Green (Invitrogen/ Life Technologies, S7020) was used to analyze the effect of HT2 and RI-HT2 on membrane permeability of MRSA USA 300 and K. pneumoniae ATCC 700603 as described elsewhere. SYTOX^TM Green is a DNA binding dye that is fluorescent when bound to nucleic acids and only enters cells with compromised plasma membranes. MRSA USA 300 and K. pneumoniae ATCC 700603 were cultured in LB broth to mid log phase at 37 °C and washed with PBS and resuspended (OD595 ≈ 0.1) in the same buffer. SYTOX^TM Green was added into the cell suspension with a final concentration of 5 μM and being kept in dark for 20 min. 98 µL pre-treated cell suspension was transferred into wells of 96-well glass black plates. Then, 2 µL of compound or DMSO were added to initiate the reaction. The final concentrations of HT2 and RI-HT2 were 1 ×, 2 ×, 4 × and 8 × MIC. Fluorescence strength was measured with excitation/emission wavelength of 485/528 nm every 5 min for 60 min.

[4] = tested on: K. pneumoniae ATCC 700603; test: Transmission electron microscopy; type: cell-based, Klebsiella pneumoniae; conditions: 2 × MIC, 60 min
Experimental: The processing method of the samples for transmission electron microscopy (TEM) was the same as the treatment for SEM. The samples were then prefixed with 2.5% glutaraldehyde at 4°C overnight, post-fixed with osmium tetroxide for 70 min, and washed twice with PBS (pH 7.4). Subsequently, the samples were dehydrated for 10 min in a graded ethanol series (30, 50, 70, 90, and 100%) followed by 10 min in a mixture of absolute ethanol and acetone (1:1, v/v) and 10 min in absolute acetone. The specimens were transferred to a mixture of absolute acetone and epoxy resin (1:1, v/v) for 30 min and then to pure epoxy resin overnight at a constant temperature. Finally, the samples were sectioned using an ultramicrotome, stained with uranyl acetate and lead citrate, and then observed by TEM (Hitachi H-7650, Japan).

CC[C@@H](C)[C@@H](NC(=O)[C@@H](Cc1ccccc1)NC(=O)[C@@H](Cc1ccccc1)NC(=O)[C@@H](Cc1ccccc1)NC(=O)[C@H](N)Cc1ccccc1)C(=O)N[C@H](CCCNC(=N)N)C(=O)N[C@H](CCCNC(=N)N)C(=O)N[C@H](CC(C)C)C(=O)N[C@H](Cc1ccccc1)C(=O)N[C@H](CCCNC(=N)N)C(N)=O [RI-HT2] (H-[dF][dF][dF][dF][dI][dR][dR][dL][dF][dR]-NH2; N-terminus assumed)
viable count, time-kill ([1]; 2 × MIC, 0 h): 12000000 CFU/mL and 16000000 CFU/mL and 14000000 CFU/mL | viable count, time-kill ([1]; 2 × MIC, 1 h): 10000 CFU/mL and 17000 CFU/mL and 15000 CFU/mL | viable count, time-kill ([1]; 2 × MIC, 3 h): 100 CFU/mL | viable count, time-kill ([1]; 2 × MIC, 6 h): 220000 CFU/mL and 310000 CFU/mL and 270000 CFU/mL | viable count, time-kill ([1]; 2 × MIC, 24 h): 1000000000000 CFU/mL and 1300000000000 CFU/mL | viable count, time-kill ([1]; 4 × MIC, 0 h): 12000000 CFU/mL and 16000000 CFU/mL and 14000000 CFU/mL | viable count, time-kill ([1]; 4 × MIC, 1 h): 2500 CFU/mL and 3500 CFU/mL and 3000 CFU/mL | viable count, time-kill ([1]; 4 × MIC, 3 h): 0 CFU/mL | viable count, time-kill ([1]; 4 × MIC, 6 h): 24000 CFU/mL and 32000 CFU/mL and 30000 CFU/mL | viable count, time-kill ([1]; 4 × MIC, 24 h): 3800000 CFU/mL and 3400000 CFU/mL | time to complete killing ([1]; 8 × MIC): 3 h | viable count, time-kill ([1]; 8 × MIC, 0 h): 12000000 CFU/mL and 16000000 CFU/mL and 14000000 CFU/mL | viable count, time-kill ([1]; 8 × MIC, 1 h): 300 CFU/mL and 500 CFU/mL | viable count, time-kill ([1]; 8 × MIC, 3 h): 0 CFU/mL | viable count, time-kill ([1]; 8 × MIC, 6 h): 0 CFU/mL | viable count, time-kill ([1]; 8 × MIC, 24 h): 0 CFU/mL | viable count, time-kill ([1]; MIC, 0 h): 12000000 CFU/mL and 16000000 CFU/mL and 14000000 CFU/mL | viable count, time-kill ([1]; MIC, 1 h): 270000 CFU/mL and 230000 CFU/mL and 250000 CFU/mL | viable count, time-kill ([1]; MIC, 3 h): 23000 CFU/mL and 16000 CFU/mL and 17000 CFU/mL | viable count, time-kill ([1]; MIC, 6 h): 3400000 CFU/mL and 2800000 CFU/mL and 3800000 CFU/mL | viable count, time-kill ([1]; MIC, 24 h): 1000000000000 CFU/mL and 1200000000000 CFU/mL and 1700000000000 CFU/mL | OD450, hemolysis (Fig 2b), replicates (sheep red blood cells; 6.25 µM): 0.01607 (2×) and 0.02078 and 0.0162 (2×) and 0.02093 | OD450, hemolysis (Fig 2b), replicates (sheep red blood cells; 12.5 µM): 0.02038 (2×) and 0.02274 and 0.02054 (2×) and 0.02291 | HC10 (concentration inducing 10% hemolysis) (sheep red blood cells; red cells of sheep, 1 h): > 100.0 µM | viable count, time-kill (MRSA USA 300 [2]; 2 × MIC, 0 h): 17000000 CFU/mL and 16000000 CFU/mL | viable count, time-kill (MRSA USA 300 [2]; 2 × MIC, 1 h): 18000 CFU/mL and 21000 CFU/mL and 20000 CFU/mL | viable count, time-kill (MRSA USA 300 [2]; 2 × MIC, 6 h): 15000 CFU/mL and 12000 CFU/mL and 14000 CFU/mL | time to complete killing (MRSA USA 300 [2]; 4 × MIC): 3 h | viable count, time-kill (MRSA USA 300 [2]; 4 × MIC, 0 h): 17000000 CFU/mL and 16000000 CFU/mL | viable count, time-kill (MRSA USA 300 [2]; 4 × MIC, 1 h): 1300 CFU/mL and 1200 CFU/mL | viable count, time-kill (MRSA USA 300 [2]; 4 × MIC, 3 h): 0 CFU/mL | viable count, time-kill (MRSA USA 300 [2]; 4 × MIC, 6 h): 0 CFU/mL | viable count, time-kill (MRSA USA 300 [2]; 4 × MIC, 24 h): 0 CFU/mL | viable count, time-kill (MRSA USA 300 [2]; 8 × MIC, 0 h): 17000000 CFU/mL and 16000000 CFU/mL | viable count, time-kill (MRSA USA 300 [2]; 8 × MIC, 1 h): 100 CFU/mL and 200 CFU/mL | viable count, time-kill (MRSA USA 300 [2]; 8 × MIC, 3 h): 0 CFU/mL | viable count, time-kill (MRSA USA 300 [2]; 8 × MIC, 6 h): 0 CFU/mL | viable count, time-kill (MRSA USA 300 [2]; 8 × MIC, 24 h): 0 CFU/mL | viable count, time-kill (MRSA USA 300 [2]; MIC, 0 h): 17000000 CFU/mL and 16000000 CFU/mL | viable count, time-kill (MRSA USA 300 [2]; MIC, 1 h): 4500000 CFU/mL and 3500000 CFU/mL and 3700000 CFU/mL | viable count, time-kill (MRSA USA 300 [2]; MIC, 3 h): 2300 CFU/mL and 1800 CFU/mL and 2200 CFU/mL | viable count, time-kill (MRSA USA 300 [2]; MIC, 6 h): 230000 CFU/mL and 380000 CFU/mL and 310000 CFU/mL | viable count, time-kill (MRSA USA 300 [2]; MIC, 24 h): 2000000000 CFU/mL and 3400000000 CFU/mL and 3000000000 CFU/mL | Fluorescence intensity (MRSA USA 300 [3]; 2 × MIC, time 0 min): 1131 and 1217 and 1235 | Fluorescence intensity (MRSA USA 300 [3]; 2 × MIC, time 5 min): 20197 and 21230 and 20865 | Fluorescence intensity (MRSA USA 300 [3]; 2 × MIC, time 10 min): 25460 and 25912 and 25261 | Fluorescence intensity (MRSA USA 300 [3]; 2 × MIC, time 15 min): 28346 and 28832 and 27920 | Fluorescence intensity (MRSA USA 300 [3]; 2 × MIC, time 20 min): 30460 and 31033 and 29642 | Fluorescence intensity (MRSA USA 300 [3]; 2 × MIC, time 25 min): 31855 and 32475 and 30920 | Fluorescence intensity (MRSA USA 300 [3]; 2 × MIC, time 30 min): 32738 and 33363 and 31902 | Fluorescence intensity (MRSA USA 300 [3]; 2 × MIC, time 35 min): 33433 and 34141 and 32365 | Fluorescence intensity (MRSA USA 300 [3]; 4 × MIC, time 0 min): 1186 and 1404 and 1281 | Fluorescence intensity (MRSA USA 300 [3]; 4 × MIC, time 5 min): 40226 and 40219 and 41612 | Fluorescence intensity (MRSA USA 300 [3]; 4 × MIC, time 10 min): 48704 and 48472 and 50316 | Fluorescence intensity (MRSA USA 300 [3]; 4 × MIC, time 15 min): 53321 and 53163 and 55112 | Fluorescence intensity (MRSA USA 300 [3]; 4 × MIC, time 20 min): 56328 and 55931 and 58102 | Fluorescence intensity (MRSA USA 300 [3]; 4 × MIC, time 25 min): 58334 and 57993 and 60104 | Fluorescence intensity (MRSA USA 300 [3]; 4 × MIC, time 30 min): 59686 and 59179 and 61418 | Fluorescence intensity (MRSA USA 300 [3]; 4 × MIC, time 35 min): 60470 and 60307 and 62172 | Fluorescence intensity (MRSA USA 300 [3]; 8 × MIC, time 0 min): 1486 and 1674 and 1277 | Fluorescence intensity (MRSA USA 300 [3]; 8 × MIC, time 5 min): 46924 and 49356 and 49374 | Fluorescence intensity (MRSA USA 300 [3]; 8 × MIC, time 10 min): 54383 and 56666 and 56984 | Fluorescence intensity (MRSA USA 300 [3]; 8 × MIC, time 15 min): 57832 and 59952 and 60652 | Fluorescence intensity (MRSA USA 300 [3]; 8 × MIC, time 20 min): 59829 and 61957 and 62485 | Fluorescence intensity (MRSA USA 300 [3]; 8 × MIC, time 25 min): 61022 and 63005 and 63531 | Fluorescence intensity (MRSA USA 300 [3]; 8 × MIC, time 30 min): 61916 and 63588 and 64175 | Fluorescence intensity (MRSA USA 300 [3]; 8 × MIC, time 35 min): 62425 and 64473 and 64696 | Fluorescence intensity (MRSA USA 300 [3]; 8 × MIC, time 40 min): 62708 | Fluorescence intensity (MRSA USA 300 [3]; MIC, time 0 min): 1304 and 1201 and 1387 | Fluorescence intensity (MRSA USA 300 [3]; MIC, time 5 min): 12522 and 12645 and 12185 | Fluorescence intensity (MRSA USA 300 [3]; MIC, time 10 min): 14676 and 14962 and 14128 | Fluorescence intensity (MRSA USA 300 [3]; MIC, time 15 min): 16119 and 16290 and 15431 | Fluorescence intensity (MRSA USA 300 [3]; MIC, time 20 min): 16841 and 16805 and 16042 | Fluorescence intensity (MRSA USA 300 [3]; MIC, time 25 min): 17216 and 17215 and 16315 | Fluorescence intensity (MRSA USA 300 [3]; MIC, time 30 min): 17367 and 17359 and 16618 | Fluorescence intensity (MRSA USA 300 [3]; MIC, time 35 min): 17590 and 17525 and 16584 | Fluorescence intensity (MRSA USA 300 [3]; MIC, time 40 min): 17600 and 17633 and 16680 | time to maximum SYTOX Green fluorescence intensity (MRSA USA 300 [3]; different concentrations): ≤ 15 min | membrane and intracellular structure by TEM (in words) [4]: cytoplasmic membranes became blurred and separated
